These results are taken from EPA's ToxRefDB 2.

In data set [1] the test system is rat. As to conditions: Multigenerational reproductive toxicity study, sprague dawley, Oral, Feed, dose end: 2 generation.
In data set [2] the test system is rat. The following applies: Combined chronic toxicity/carcinogenicity, fischer, Oral, Feed, dose end: 24 month.
Data set [3] deals with mouse. The following applies: Carcinogenicity, cd1, Oral, Feed, dose end: 87 week, group: systemic.
The test system of data set [4] is rabbit. As to conditions: Prenatal developmental toxicity study, chinchilla, Oral, Gavage/Intubation, dose end: 18 GD.
Data set [5] concerns mouse. As to conditions: Combined chronic toxicity/carcinogenicity, cd1, Oral, Feed, dose end: 78 week, group: systemic.
The subject of data set [6] is dog. The following applies: Chronic toxicity, beagle, Oral, Feed, dose end: 52 week, group: systemic.
The test system of data set [7] is rat. The following applies: Combined chronic toxicity/carcinogenicity; sprague dawley; Oral; Feed; dose end: 24 month; group: systemic; systemic / in life observation / clinical signs / urine staining - perineum.
In data set [8] the test system is rat. The following applies: Sub-acute repeat dose toxicity, Oral, Gavage/Intubation, dose end: 14 day, group: systemic.
In data set [9] the test system is rat. The following applies: Sub-acute repeat dose toxicity, sprague dawley, Oral, Gavage/Intubation, dose end: 14 day, group: systemic.
Data set [10] relates to dog. The following applies: Sub-acute repeat dose toxicity; beagle; Oral; Gavage/Intubation; dose end: 14 day; group: systemic; systemic / in life observation / clinical signs / abnormal feces.
Where [11] appears, read: group: cholinesterase, cholinesterase / cholinesterase / cholinesterase / plasma cholinesterase (che).
Where [12] appears, read: group: offspring, developmental / offspring survival late / lactation index / lactation index.
Where [13] appears, read: group: offspring, developmental / offspring survival late / lactation index / lactation index + systemic / in life observation / body weight / offspring (pup….
[14] abbreviates: group: parental, systemic / in life observation / body weight / body weight.
Setting [15] is: group: parental, systemic / organ weight / ovary / relative to body weight.
[16] abbreviates: group: cholinesterase, cholinesterase / cholinesterase / cholinesterase / brain cholinesterase (che) + cholinesterase / cholinesterase / cholinesterase / ….
[17] abbreviates: group: systemic, systemic / hematology / mean corpuscular (cell) volume (mcv) / mean corpuscular (cell) volume (mcv) + systemic / in life observation / body ….
The mark [18] stands for this setting: systemic / organ weight / brain / absolute.
Where [19] appears, read: systemic / organ weight / brain / absolute + systemic / in life observation / body weight / body weight + systemic / in life observation / ….
Setting [20] is: group: developmental, developmental / developmental malformation / bone / absent + developmental / developmental malformation / bone / fused + developmental / ….
Where [21] appears, read: group: maternal, systemic / in life observation / body weight / body weight gain + systemic / in life observation / clinical signs / ataxia + systemic / in ….
The mark [22] stands for this setting: systemic / in life observation / body weight / body weight gain + systemic / in life observation / body weight / body weight + systemic / ….
[23] abbreviates: systemic / clinical chemistry / alanine aminotransferase (alt/sgpt) / alanine aminotransferase (alt/sgpt) + systemic / clinical chemistry / ….
[24] abbreviates: systemic / organ weight / liver / absolute.
Where [25] appears, read: systemic / in life observation / clinical signs / salivation.
Where [26] appears, read: systemic / in life observation / clinical signs / urine staining - perineum + systemic / in life observation / clinical signs / salivation.
[27] abbreviates: systemic / clinical chemistry / glucose / glucose + systemic / clinical chemistry / urea nitrogen / urea nitrogen + systemic / clinical ….

As to `CCOP(=O)(NC(C)C)Oc1ccc(SC)c(C)c1` (stereo not given) [Fenamiphos], the LEL in data set [1] (setting [11]) stood at 0.19 mg/kg/day; in data set [1] (setting [12]), 0.65 mg/kg/day; in data set [1] (setting [15]), 0.2 mg/kg/day; in [2] (setting [16]), 0.098 mg/kg/day; in [2] (setting [17]), 2.45 mg/kg/day; in data set [3] (setting [18]), 0.3 mg/kg/day. For the same compound, the LEL in [4] (setting [20]) and in [4] (setting [21]) was 2.5 mg/kg/day in each case. The LOAEL (as a rule, the lowest tested level that showed an adverse finding) is 0.19 mg/kg/day in [1] (setting [11]); 0.65 mg/kg/day in data set [1] (setting [12]); over 2.94 mg/kg/day in data set [1] (setting [14]); 0.098 mg/kg/day in data set [2] (setting [16]); over 2.45 mg/kg/day in [2] (setting [17]); over 7.5 mg/kg/day in data set [3] (setting [19]). The LOAEL in data set [4] (setting [20]) and in [4] (setting [21]) was 2.5 mg/kg/day throughout. Also, the NEL in [1] (setting [11]) is under 0.19 mg/kg/day; in data set [1] (setting [13]), 0.17 mg/kg/day; in data set [1] (setting [15]), under 0.2 mg/kg/day; in data set [2] (setting [16]) it was under 0.098 mg/kg/day; in [2] (setting [17]), 0.464 mg/kg/day; in data set [3] (setting [18]), under 0.3 mg/kg/day. The NEL in data set [4] (setting [20]) and in [4] (setting [21]) was 0.5 mg/kg/day throughout. Besides, the NOAEL (commonly the highest tested level that showed no adverse finding) is under 0.19 mg/kg/day in [1] (setting [11]); 0.17 mg/kg/day in data set [1] (setting [13]); at least 2.94 mg/kg/day in [1] (setting [14]); under 0.098 mg/kg/day in [2] (setting [16]); at least 2.45 mg/kg/day in [2] (setting [17]); at least 7.5 mg/kg/day in data set [3] (setting [19]). Besides, the NOAEL in data set [4] (setting [20]) and in data set [4] (setting [21]) was 0.5 mg/kg/day each time.

Consider `CC(C)C1(C)N=C(c2nc3ccccc3cc2C(=O)O)NC1=O` (stereo not given) [Imazaquin], for which the LOAEL in [5] (systemic / in life observation / body weight / body weight gain) was 600 mg/kg/day; in data set [6] (setting [23]), 125 mg/kg/day; in [7], over 500 mg/kg/day. Moreover, the values for the LEL in data set [5] (setting [22]), in data set [6] (setting [24]) and in data set [7] were 600 mg/kg/day, 5 mg/kg/day and 500 mg/kg/day, respectively. Also, the NEL in [5] (setting [22]) was 150 mg/kg/day; in data set [6] (setting [24]), under 5 mg/kg/day; in [7], 250 mg/kg/day. In addition, the NOAEL is 150 mg/kg/day in data set [5] (setting [22]), 25 mg/kg/day in [6] (setting [23]) and at least 500 mg/kg/day in data set [7].

On to `O=C(O)CCN(C1(C(=O)NO)CCCC1)S(=O)(=O)c1ccc(Oc2ccc(F)cc2)cc1`, for which the LEL was found to be 300 mg/kg/day in data set [8] (setting [25]), 150 mg/kg/day in [9] (systemic / clinical chemistry / glucose / glucose + systemic / clinical chemistry / urea nitrogen / urea nitrogen) and 250 mg/kg/day in data set [10]. Further, the NEL in [8] (setting [25]) is under 300 mg/kg/day; in data set [10] it was 50 mg/kg/day. The LOAEL was over 500 mg/kg/day in [8] (setting [26]), over 500 mg/kg/day in [9] (setting [27]) and over 250 mg/kg/day in data set [10]. Besides, the NOAEL in data set [8] (setting [26]) was at least 500 mg/kg/day; in data set [9] (setting [27]), at least 500 mg/kg/day; in [10], at least 250 mg/kg/day.
